Measurements as given in ChEMBL document CHEMBL2375317, “Heterocyclic bismuth carboxylates based on a diphenyl sulfone scaffold: synthesis and antifungal activity against Saccharomyces cerevisiae” (Eur J Med Chem, 2013).

test system: Saccharomyces cerevisiae; experiment: Antifungal activity against Saccharomyces cerevisiae W303-1A at 30 mM after 48 hrs; format: functional, organism-based

Compared with “2,8-Dihydroxy-10-chlorophenothiabismine 5,5-dioxide”, “10-(1,3-Dibromoazulene-2-carboxy)phenothiabismine 5,5-dioxide” is higher in inhibition zone (IZ): 8 mm for the first, 12 mm for the second.

“10-(1,3-Dichloroazulene-2-carboxy)phenothiabismine 5,5-dioxide” and “10-(1-Naphthoyloxy)phenothiabismine 5,5-dioxide” are the same in inhibition zone (IZ): 13 mm for the first, 13 mm for the second.

“10-(2-Acetoxybenzoyloxy)phenothiabismine 5,5-dioxide” and “10-(2-Naphthoyloxy)phenothiabismine 5,5-dioxide” are the same in inhibition zone (IZ): 12 mm for the first, 12 mm for the second.

First: 10-(4-Acetoxybenzoyloxy)phenothiabismine 5,5-dioxide
Second: 10-(4-Aminobenzoyloxy)phenothiabismine 5,5-dioxide
The inhibition zone (IZ) of the first is higher: 17 mm for the first, 15 mm for the second.

Going from “10-(4-Nitrobenzoyloxy)phenothiabismine 5,5-dioxide” to “10-(9-Anthranoyloxy)phenothiabismine 5,5-dioxide”, the inhibition zone (IZ) falls from 17 mm to 14 mm.

Going from “10-(Azulene-1-carboxy)phenothiabismine 5,5-dioxide” to “10-(Azulene-2-carboxy)phenothiabismine 5,5-dioxide”, the inhibition zone (IZ) rises from 11 mm to 14 mm.

Compared with “10-(Azulene-6-carboxy)phenothiabismine 5,5-dioxide”, “10-(Benzoyloxy)phenothiabismine 5,5-dioxide” is higher in inhibition zone (IZ): 12 mm for the first, 17 mm for the second.

Going from “10-(Cinnamoyloxy)phenothiabismine 5,5-dioxide” to “10-(Indol-3-acetoxy)phenothiabismine 5,5-dioxide”, the inhibition zone (IZ) falls from 14 mm to 13 mm.

First: 10-(N-Phthalylglycyloxy)phenothiabismine 5,5-dioxide
Second: 10-(Nicotinoyloxy)phenothiabismine 5,5-dioxide
The inhibition zone (IZ) of the first is lower: 12 mm for the first, 14 mm for the second.

“10-(p-tolyl)benzo[b][1,4]benzothiabismine 5,5-dioxide” and “10-Chloro-2-phenylphenothiabismine 5,5-dioxide” are the same in inhibition zone (IZ): 0 mm for the first, 0 mm for the second.

Going from “10-Chloro-2-tert-butylphenothiabismine 5,5-dioxide” to “10-chlorobenzo[b][1,4]benzothiabismine 5,5-dioxide”, the inhibition zone (IZ) rises from 0 mm to 18 mm.

For “tert-butyl-[2-[tert-butyl(dimethyl)silyl]oxy-10-chloro-5,5-dioxo-benzo[b][1,4]benzothiabismin-8-yl]oxy-dimethyl-silane”, the inhibition zone (IZ) was 0 mm.
